Source: patent US12410160B2 (Gilead Sciences, Inc., priority 2021, dated 2025)
“And” between values parts separate entries of the source, which are not always exact repeats. Equal values may be shown once.

How the values were obtained:
human KHK-C = human KHK-C (Homo sapiens (Human), UniProt P50053); experiment: KHK Biochemical Assay (IC50), ADP-Glo, KHK-C; conditions: ADP-Glo; average of at least two separate assays
Method in brief: (§1)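 His-tagged enzyme expressed in BL21 (DE3), Ni-NTA purified. Compounds, serially diluted 1:3 in DMSO, pre-incubated 30 min with enzyme in 50 mM Hepes pH 7.4, 140 mM KCl, 5 mM MgCl2, 0.01% Triton-X, then ATP and fructose added; 4 h at room temperature. ADP formation read by ADP-Glo luminescence.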

human KHK-A = human KHK-A (Homo sapiens (Human), UniProt P50053); experiment: KHK Biochemical Assay (IC50), ADP-Glo, KHK-A; conditions: ADP-Glo; average of at least two separate assays
Method in brief: as §1

Sequence of human KHK-C (P50053 whole entry): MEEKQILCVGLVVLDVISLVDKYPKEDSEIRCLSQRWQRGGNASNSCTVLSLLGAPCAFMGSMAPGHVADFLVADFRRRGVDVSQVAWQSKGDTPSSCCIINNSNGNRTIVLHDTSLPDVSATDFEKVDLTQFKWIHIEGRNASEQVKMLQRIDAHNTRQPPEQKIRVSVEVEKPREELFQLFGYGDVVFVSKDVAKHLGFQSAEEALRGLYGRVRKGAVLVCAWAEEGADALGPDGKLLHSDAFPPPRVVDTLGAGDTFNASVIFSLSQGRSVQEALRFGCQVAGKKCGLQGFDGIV
Sequence of human KHK-A (P50053 other isoform, or with tags, fused parts or gaps): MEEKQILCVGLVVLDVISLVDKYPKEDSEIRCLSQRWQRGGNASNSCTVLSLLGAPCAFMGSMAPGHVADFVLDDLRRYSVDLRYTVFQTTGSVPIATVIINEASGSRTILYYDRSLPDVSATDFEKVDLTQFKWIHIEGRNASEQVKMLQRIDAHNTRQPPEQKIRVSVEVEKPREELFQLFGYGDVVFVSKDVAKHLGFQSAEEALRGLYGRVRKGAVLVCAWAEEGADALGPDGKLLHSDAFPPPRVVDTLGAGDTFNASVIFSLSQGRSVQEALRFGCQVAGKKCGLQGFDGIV

| IC50 (human KHK-C) | IC50 (human KHK-A) | Compound |
| --- | --- | --- |
| 0.801 µM | 1.08 µM | C[C@H]1CCN1c1nc2c(c(-c3ccc(-c4ccccc4)nc3)n1)CCC2 [Example 55, (S)-2-(2-methylazetidin-1-yl)-4-(6-phenylpyridin-3-yl)-6,7-dihydro-5H-cyclopenta[d]pyrimidine] |
| 0.0077 µM | 0.0038 µM | C[C@H]1CCN1c1nc2c(c(-c3ccc(C(N)=O)s3)n1)CCC2 [Example 56, (S)-5-(2-(2-methylazetidin-1-yl)-6,7-dihydro-5H-cyclopenta[d]pyrimidin-4-yl)thiophene-2-carboxamide] |
| 0.0903 µM | 0.0568 µM | C[C@H]1CCN1c1nc2c(c(-c3cccc(C(=O)NCCO)c3)n1)CCC2 [Example 61, (S)—N-(2-hydroxyethyl)-3-(2-(2-methylazetidin-1-yl)-6,7-dihydro-5H-cyclopenta[d]pyrimidin-4-yl)benzamide] |
| 0.107 µM | 0.0527 µM | C[C@H]1CCN1c1nc2c(c(-c3cccc(C(=O)Nc4cn[nH]c4)c3)n1)CCC2 [Example 64, (S)-3-(2-(2-methylazetidin-1-yl)-6,7-dihydro-5H-cyclopenta[d]pyrimidin-4-yl)-N-(1H-pyrazol-4-yl)benzamide] |
| 0.245 µM | 0.15 µM | C[C@H]1CCN1c1nc2c(c(-c3cccc(C(=O)Nc4cc[nH]n4)c3)n1)CCC2 [Example 65, (S)-3-(2-(2-methylazetidin-1-yl)-6,7-dihydro-5H-cyclopenta[d]pyrimidin-4-yl)-N-(1H-pyrazol-3-yl)benzamide] |
| 0.14 µM | 0.128 µM | C[C@H]1CCN1c1nc2c(c(-c3cccc(C(=O)NC4(C(=O)O)CC4)c3)n1)CCC2 [Example 67, (S)-1-(3-(2-(2-methylazetidin-1-yl)-6,7-dihydro-5H-cyclopenta[d]pyrimidin-4-yl)benzamido)cyclopropane-1-carboxylic acid] |
| 0.0451 µM | 0.0943 µM | C[C@H]1CCN1c1nc2c(c(-c3cccc(C(=O)N4CC(C(=O)O)C4)c3)n1)CCC2 [Example 68, (S)-1-(3-(2-(2-methylazetidin-1-yl)-6,7-dihydro-5H-cyclopenta[d]pyrimidin-4-yl)benzoyl)azetidine-3-carboxylic acid] |
| 0.145 µM | 0.286 µM | C[C@H]1CCN1c1nc2c(c(-c3cccc(C(=O)N4CC(CC(=O)O)C4)c3)n1)CCC2 [Example 69, (S)-2-(1-(3-(2-(2-methylazetidin-1-yl)-6,7-dihydro-5H-cyclopenta[d]pyrimidin-4-yl)benzoyl)azetidin-3-yl)acetic acid] |
| 0.104 µM | 0.107 µM | C[C@H]1CCN1c1nc2c(c(-c3cccc(N)c3)n1)CCC2 [Example 71, (S)-3-(2-(2-methylazetidin-1-yl)-6,7-dihydro-5H-cyclopenta[d]pyrimidin-4-yl)aniline] |
| 0.156 µM | 0.175 µM | C[C@H]1CCN1c1nc2c(c(-c3cccc(NS(=O)(=O)c4cn(C)cn4)c3)n1)CCC2 [Example 73, (S)-1-methyl-N-(3-(2-(2-methylazetidin-1-yl)-6,7-dihydro-5H-cyclopenta[d]pyrimidin-4-yl)phenyl)-1H-imidazole-4-sulfonamide] |
| 0.876 µM | 1.15 µM | Cc1noc(C)c1S(=O)(=O)Nc1cccc(-c2nc(N3CC[C@@H]3C)nc3c2CCC3)c1 [Example 76, (S)-3,5-dimethyl-N-(3-(2-(2-methylazetidin-1-yl)-6,7-dihydro-5H-cyclopenta[d]pyrimidin-4-yl)phenyl)isoxazole-4-sulfonamide] |
| 0.315 µM | 0.285 µM | C[C@H]1CCN1c1nc2c(c(-c3cccc(C(=O)N4CC[C@H]4C(=O)O)c3)n1)CCC2 [Example 77, (S)-1-(3-(2-((S)-2-methylazetidin-1-yl)-6,7-dihydro-5H-cyclopenta[d]pyrimidin-4-yl)benzoyl)azetidine-2-carboxylic acid] |
| 0.239 µM and 0.129 µM | 0.193 µM and 0.134 µM | C[C@H]1CCN1c1nc2c(c(-c3cccc(C(=O)N4CC[C@@H]4C(=O)O)c3)n1)CCC2 [Example 78, (R)-1-(3-(2-((S)-2-methylazetidin-1-yl)-6,7-dihydro-5H-cyclopenta[d]pyrimidin-4-yl)benzoyl)azetidine-2-carboxylic acid] |
| 0.279 µM | 0.296 µM | CC(=O)Nc1ncc(S(=O)(=O)Nc2cccc(-c3nc(N4CC[C@@H]4C)nc4c3CCC4)c2)s1 [Example 84, (S)—N-(5-(N-(3-(2-(2-methylazetidin-1-yl)-6,7-dihydro-5H-cyclopenta[d]pyrimidin-4-yl)phenyl)sulfamoyl)thiazol-2-yl)acetamide] |
| 1.37 µM | 1.12 µM | C[C@H]1CCN1c1nc2c(c(-c3cc(C(N)=O)ns3)n1)CCC2 [Example 85, (S)-5-(2-(2-methylazetidin-1-yl)-6,7-dihydro-5H-cyclopenta[d]pyrimidin-4-yl)isothiazole-3-carboxamide] |
| > 5 µM | > 5 µM | C[C@H]1[C@H](N)CN1c1nc2c(c(-c3ccc(C(N)=O)cc3)n1)CCC2 [Example 93] |

| IC50 (human KHK-C) | IC50 (human KHK-A) | Compound |
| --- | --- | --- |
| > 5 µM | 4.66 µM | c1ccc(-c2nc(C3CC3)nc3c2CCC3)cc1 [Example 96, 2-cyclopropyl-4-phenyl-6,7-dihydro-5H-cyclopenta[d]pyrimidine] |
| 2.23 µM | 0.937 µM | c1ccc(-c2nc(C3CCC3)nc3c2CCC3)cc1 [Example 97, 2-cyclobutyl-4-phenyl-6,7-dihydro-5H-cyclopenta[d]pyrimidine] |
| > 5 µM | > 5 µM | c1ccc(-c2nc(C3CC4CCC3C4)nc3c2CCC3)cc1 (centres unmarked) [Example 98, 2-(bicyclo[2.2.1]heptan-2-yl)-4-phenyl-6,7-dihydro-5H-cyclopenta[d]pyrimidine] |
| > 5 µM | > 5 µM | c1ccc(-c2nc(C3CNC3)nc3c2CCC3)cc1 [Example 99, 2-(azetidin-3-yl)-4-phenyl-6,7-dihydro-5H-cyclopenta[d]pyrimidine] |
| 0.161 µM | 0.161 µM | Cc1nnc(-c2ccc(-c3nc(N4CC[C@@H]4C)nc4c3CCC4)cc2)o1 [Example 100, (S)-2-methyl-5-(4-(2-(2-methylazetidin-1-yl)-6,7-dihydro-5H-cyclopenta[d]pyrimidin-4-yl)phenyl)-1,3,4-oxadiazole] |
| 0.119 µM | 0.0691 µM | C[C@H]1CCN1c1nc2c(c(-c3ccc(-c4nccn4C)cc3)n1)CCC2 [Example 101, (S)-4-(4-(1-methyl-1H-imidazol-2-yl)phenyl)-2-(2-methylazetidin-1-yl)-6,7-dihydro-5H-cyclopenta[d]pyrimidine] |
| 0.42 µM | 0.279 µM | C[C@H]1CCN1c1nc2c(c(-c3ccc(-n4cccn4)cc3)n1)CCC2 [Example 102, (S)-4-(4-(1H-pyrazol-1-yl)phenyl)-2-(2-methylazetidin-1-yl)-6,7-dihydro-5H-cyclopenta[d]pyrimidine] |
| 1.28 µM | 0.707 µM | C[C@H]1CCN1c1nc2c(c(-c3ccc(-c4ccn[nH]4)cc3)n1)CCC2 [Example 103, (S)-4-(4-(1H-pyrazol-5-yl)phenyl)-2-(2-methylazetidin-1-yl)-6,7-dihydro-5H-cyclopenta[d]pyrimidine] |
| 0.205 µM | 0.253 µM | CC1CN(c2nc3c(c(-c4ccc(C(N)=O)cc4)n2)CCC3)C1C (centres unmarked) [Example 105, 4-(2-(2,3-dimethylazetidin-1-yl)-6,7-dihydro-5H-cyclopenta[d]pyrimidin-4-yl)benzamide] |
| 2.54 µM | 3.2 µM | C[C@@H]1CN(c2nc3c(c(-c4ccc(C(N)=O)cc4)n2)CCC3)[C@@H]1C [Example 109, 4-(2-((2R,3R)-2,3-dimethylazetidin-1-yl)-6,7-dihydro-5H-cyclopenta[d]pyrimidin-4-yl)benzamide] |
| 0.136 µM | 0.322 µM | Cc1nc2cc(-c3nc(N4CC[C@@H]4C)nc4c3CCC4)ccc2s1 [Example 110, (S)-2-methyl-5-(2-(2-methylazetidin-1-yl)-6,7-dihydro-5H-cyclopenta[d]pyrimidin-4-yl)benzo[d]thiazole] |
| 0.152 µM | 0.186 µM | C#CC1CCN1c1nc2c(c(-c3ccc(C(N)=O)cc3)n1)CCC2 (centres unmarked) [Example 111, 4-(2-(2-ethynylazetidin-1-yl)-6,7-dihydro-5H-cyclopenta[d]pyrimidin-4-yl)benzamide] |
| 0.0688 µM | 0.103 µM | C[C@H]1[C@H](O)CN1c1nc2c(c(-c3cccc(C4CC4C(N)=O)c3)n1)CCC2 (stereo partly drawn) [Example 112, 2-(3-(2-((2S,3R)-3-hydroxy-2-methylazetidin-1-yl)-6,7-dihydro-5H-cyclopenta[d]pyrimidin-4-yl)phenyl)cyclopropane-1-carboxamide] |
| 0.0398 µM | 0.0546 µM | C[C@H]1CCN1c1nc2c(c(-c3cc(C(N)=O)cc(C(N)=O)c3)n1)CCC2 [Example 116, (S)-5-(2-(2-methylazetidin-1-yl)-6,7-dihydro-5H-cyclopenta[d]pyrimidin-4-yl)isophthalamide] |
| 3.78 µM | 4.78 µM | CC1=C(c2nc3c(c(-c4ccc(C(N)=O)cc4)n2)CCC3)CCC1=O [Example 117, 4-(2-(2-methyl-3-oxocyclopent-1-en-1-yl)-6,7-dihydro-5H-cyclopenta[d]pyrimidin-4-yl)benzamide] |

| Compound | IC50 (human KHK-C) | IC50 (human KHK-A) |
| --- | --- | --- |
| C[C@H]1CCN1c1nc(-c2cccc(C(N)=O)c2)c2c(n1)[C@H]1CC[C@@H]2C1 [Example 62, 3-((5R,8S)-2-((S)-2-methylazetidin-1-yl)-5,6,7,8-tetrahydro-5,8-methanoquinazolin-4-yl)benzamide] | 2.93 µM | 1.92 µM |
| C[C@@H]1[C@@H](C)CN1c1nc2c(c(-c3ccc(C(N)=O)cc3)n1)CCC2 [Example 108] | 0.466 µM | 0.594 µM |
| C[C@H]1CCN1c1nc2c(c(-c3cccc(C45CCC(C4)C5C(=O)O)c3)n1)CCC2 (stereo partly drawn) [Example 115, 1-(3-(2-((S)-2-methylazetidin-1-yl)-6,7-dihydro-5H-cyclopenta[d]pyrimidin-4-yl)phenyl)bicyclo[2.1.1]hexane-5-carboxylic acid] | 0.109 µM | 0.0941 µM |
